From patent publication US20230339882A1, “SHP2 INHIBITOR AND COMPOSITION AND APPLICATION THEREOF” (Betta Pharmaceuticals Co., Ltd., priority 2020, published 2023) come the findings set out here.

Usually IC50 stands for the concentration that inhibits the measured activity by half.

The nature of data set [1]: In vitro metabolic stability in liver microsomes, human. It counts as in vitro ADME. The note with it: for microsomal CLint at 2 µM: pH 7.3, read-out: CLint (µL/min/mg protein) human. The protocol: (§1) Example D: In Vitro Metabolic Stability of Human and Rat Liver Microsomes Test Buffer Preparation
(§2) Dissolve 1900 mg of MgCl2 in 400 mL of ultrapure water.
(§3) Dissolve 17.42 g K2HPO4 and 13.65 g KH2PO4 into 1000 mL of ultrapure water, respectively. Mix a certain proportion of K2HPO4 and KH2PO4 to adjust the pH to 7.30 ± 0.10.
(§4) Prepare a solution of 10 ng/mL labetalol and 10 ng/mL glyburide in acetonitrile and store at 4° C.
(§5) Prepare 10 mM verapamil (positive control) and test article stock solutions in DMSO. Then, with MeOH/ACN/H2O solution (1:1:2 by volume), diluted to 50 µM and 200 µM working solutions, respectively.
(§6) experiment procedure: • 1) Add 40 µL MgCl2 and 306 µL PBS to 96 wells (set blank control group, positive control group, test compound sample group, and negative control group at the same time) • 2) Add 4 µL of compound working solution to each well (4 µL of PBS buffer for blank group) (Note: the final concentration of DMSO volume in the system is ≤ 0.5%) • 3) Add 10 µL of liver microsomes (concentration: 20 mg/mL) to each well, mix well, and pre-incubate at 37° C. for 10 minutes. • 4) Add 40 µL of 10 mM NADPH working solution to each well to start the reaction (add equal volume of PBS buffer for blank control group and negative control group respectively), the total reaction volume is 400 µL. • 5) Take out 50 µL samples from the above reaction solution at 0, 5, 15, and 45 minutes, and add 400 µL of reaction stop solution to stop the reaction • 6) Shake the sample after the termination of the reaction on a shaker for 5 minutes. • 7) Centrifuge the sample at 3200 rcf for 10 minutes. After the centrifugation is complete, transfer 50 µL of the supernatant to 200 µL of H2O for dilution for LC-MS/MS analysis.
(§7) Calculations of t½ and CLint are performed using the first-order kinetic equations: […]
(§8) where k represents the elimination constant, calculated from a log-linear plot of percentage remaining versus time. t½ represents half-life. Cprotein is the concentration of liver microsomes.
In general terms: Liver microsomes are vesicles of endoplasmic reticulum, rich in cytochrome P450 enzymes.

A short description of data set [2]: In vitro metabolic stability in liver microsomes, monkey. The data set is classed as in vitro ADME. The note with it: for microsomal CLint at 2 µM: pH 7.3, read-out: CLint (µL/min/mg protein) monkey.
For a further data set, the system named is leukemia cells MV-4-11. The data set can be described thus: Cell proliferation assay, CELL TITER-GLO (CTG) luminescence, MV-4-11. It counts as cell-based. The method in brief: (§9)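 NCI-H358 (2000 cells/well, ultra-low-attachment plates) and MV-4-11 cells were dosed 24 h after seeding at 1000 nM down to 0.1524 nM (3-fold steps). Viable-cell ATP was read by CellTiter-Glo luminescence after 96 h for NCI-H358 and 120 h for MV-4-11. IC50 came from a variable-slope fit of inhibition versus the 0 nM control.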
Background: In ATP-based viability assays light output follows the ATP content of the culture.

The test system of data set [3] is lung cancer cells NCI-H358. The data set can be described thus: Cell proliferation assay, CELL TITER-GLO (CTG) luminescence, NCI-H358. It counts as cell-based. The following applies: cultured for 96 hrs. An outline of the steps: as §9
For the next data set, the target named is SHP2 (Homo sapiens (Human), UniProt Q06124). The data set can be described thus: SHP2 allosteric inhibitory enzyme activity assay (DiFMUP fluorescence). The data set is classed as biochemical. The following applies: read-out: SHP2 enzymatic activity IC50. An outline of the steps:
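Human SHP2 (0.2 ng) preincubated 1 h at room temperature with 25 µM activating peptide IRS1_pY1172(dPEG8)pY1222 and compound (10-point series from 10 µM) in HEPES/NaCl/KCl/BRIJ-35/EDTA/DTT buffer. DiFMUP then added for 1 h; fluorescence at ex 340/em 450 nm, normalized to no-enzyme and no-inhibitor controls, IC50 from variable-slope fit.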

Data set [4] in a line: In vitro metabolic stability in liver microsomes, dog. It counts as in vitro ADME. The following applies: for microsomal CLint at 2 µM: pH 7.3.
Data set [5] is described as follows: In vitro metabolic stability in liver microsomes, rat. The data set is classed as in vitro ADME. The following applies: for microsomal CLint at 2 µM: pH 7.3, read-out: CLint (µL/min/mg protein) rat. How it is done:
as §1, §2, §3, §4, §5, §6, §7, §8

A short description of data set [6]: In vitro metabolic stability in liver microsomes, mouse. The data set is classed as in vitro ADME. The following applies: for microsomal CLint at 2 µM: pH 7.3, read-out: CLint (µL/min/mg protein) mouse.
Setting [7] is: Homo sapiens, MV4-11, cultured for 120 hrs.
[8] abbreviates: Homo sapiens, NCI-H358, ultra-low adsorption plate.

Sequence of SHP2 (Q06124 whole entry): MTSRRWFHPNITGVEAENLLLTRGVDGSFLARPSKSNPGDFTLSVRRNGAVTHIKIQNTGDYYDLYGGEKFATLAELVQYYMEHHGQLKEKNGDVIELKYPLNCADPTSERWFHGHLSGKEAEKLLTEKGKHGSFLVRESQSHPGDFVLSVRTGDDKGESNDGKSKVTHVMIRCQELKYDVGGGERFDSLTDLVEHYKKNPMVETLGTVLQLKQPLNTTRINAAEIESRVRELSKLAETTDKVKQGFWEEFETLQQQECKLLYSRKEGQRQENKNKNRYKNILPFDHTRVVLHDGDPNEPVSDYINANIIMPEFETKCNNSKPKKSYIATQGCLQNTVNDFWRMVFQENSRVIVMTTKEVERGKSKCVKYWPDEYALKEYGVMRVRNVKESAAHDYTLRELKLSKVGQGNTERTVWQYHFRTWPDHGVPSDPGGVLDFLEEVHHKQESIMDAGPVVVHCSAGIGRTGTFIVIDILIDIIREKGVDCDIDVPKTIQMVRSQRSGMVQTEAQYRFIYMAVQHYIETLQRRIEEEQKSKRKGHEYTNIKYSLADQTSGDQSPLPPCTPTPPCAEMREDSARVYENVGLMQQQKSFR

As to `N[C@@H]1c2ccccc2CC12CCN(c1ncc(C#CCOc3ccc4c(c3)CNC4=O)nc1CO)CC2` [Compound A51, (S)-5-((3-(5-(1-amino-1,3-dihydrospiro[indene-2,4′-piperidin]-1′-yl)-6-(hydroxymethy 1)pyrazin-2-yl)prop-2-yn-1-yl)oxy)isoindolin-1-one], the “CLint (µL/min/mg protein) human” value in data set [1] was determined as 9.9 µL/min/mg protein. In data set [2], the “CLint (µL/min/mg protein) monkey” value is 26.2 µL/min/mg protein. The figures for the half-maximal inhibitory concentration (IC50) (with leukemia cells MV-4-11 (cultured for 120 hrs); in data set [3] (ultra-low adsorption plate); on SHP2) were 1 nM, 0.8 nM and 2.4 nM, respectively. Also, the “CLint (µL/min/mg protein) dog” value in data set [4] (dog, microsomes) amounted to 22.2 µL/min/mg protein. Besides, the “CLint (µL/min/mg protein) rat” value in data set [5] was 12.5 µL/min/mg protein. Besides, the “CLint (µL/min/mg protein) mouse” value in data set [6] was 16.7 µL/min/mg protein.
As to `NC(=O)c1ccc(OCC#Cc2cnc(N3CCC4(CC3)Cc3ccccc3[C@H]4N)c(CO)n2)cc1` [Compound A17, (S)-4-((3-(5-(1-amino-1,3-dihydrospiro[indene-2,4′-piperidine]-1′-yl)-6-(hydroxymethyl)pyrazin-2-yl)prop-2-yn-1-yl)oxy) benzamide], the “CLint (µL/min/mg protein) human” value in data set [1] came to 0.4 µL/min/mg protein. The “CLint (µL/min/mg protein) monkey” value in data set [2] turned out to be 5.0 µL/min/mg protein. In addition, the IC50 with leukemia cells MV-4-11 (cultured for 120 hrs) turned out to be 1 nM; in data set [3] (ultra-low adsorption plate) it was 1.5 nM; at SHP2, 2.4 nM. Further, in data set [4] (dog liver microsomes), the “CLint (µL/min/mg protein) dog” value is 10.6 µL/min/mg protein. Further, in data set [5], the “CLint (µL/min/mg protein) rat” value worked out at 15.9 µL/min/mg protein. The “CLint (µL/min/mg protein) mouse” value in data set [6] is 12.0 µL/min/mg protein.
With `N[C@@H]1c2ccccc2CC12CCN(c1ncc(C#CCOc3cccc(C(F)(F)F)c3)nc1CO)CC2` [Compound A13], in data set [1], the “CLint (µL/min/mg protein) human” value came out at 6.3 µL/min/mg protein. In data set [2], the “CLint (µL/min/mg protein) monkey” value is given as 2.6 µL/min/mg protein. The IC50 was 18 nM in the data set with leukemia cells MV-4-11 (cultured for 120 hrs), 28 nM in data set [3] (ultra-low adsorption plate) and 5.8 nM at SHP2. Besides, the “CLint (µL/min/mg protein) dog” value in data set [4] (dog liver microsomes) was 0.9 µL/min/mg protein. In addition, the “CLint (µL/min/mg protein) rat” value in data set [5] was 2.4 µL/min/mg protein. In data set [6], the “CLint (µL/min/mg protein) mouse” value came to 6.6 µL/min/mg protein.
With `N[C@@H]1c2ccccc2CC12CCN(c1ncc(C#CCOc3ccc4c(c3)NC(=O)CC4)nc1CO)CC2` [Compound A22], in data set [1], the “CLint (µL/min/mg protein) human” value is 1.6 µL/min/mg protein. Besides, the “CLint (µL/min/mg protein) monkey” value in data set [2] amounted to 21.0 µL/min/mg protein. Further, the half-inhibitory concentration (IC50) in the data set with leukemia cells MV-4-11 (cultured for 120 hrs) stood at 2.9 nM; in data set [3] (ultra-low adsorption plate), 2.3 nM; on SHP2, 4.6 nM. In addition, the “CLint (µL/min/mg protein) dog” value in data set [4] (dog liver microsomes) was determined as 13.6 µL/min/mg protein. The “CLint (µL/min/mg protein) rat” value in data set [5] came out at 20.7 µL/min/mg protein. Besides, the “CLint (µL/min/mg protein) mouse” value in data set [6] stood at 13.2 µL/min/mg protein.
Regarding `N[C@@H]1c2ccccc2CC12CCN(c1ncc(C#CCOc3ccc(C(O)C(F)(F)F)cc3)nc1CO)CC2` (stereo partly drawn) [Compound A80, 1-(4-((3-(5-((S)-1-amino-1,3-dihydrospiro[indene-2,4′-piperidin]-1′-yl)-6-(hydroxymethyl)pyrazin-2-yl)prop-2-yn-1-yl)oxy)phenyl)-2,2,2-trifluoroethane-1-ol], the microsomal CLint at 2 µM came out at 2.7 µL/min/mg in data set [1]; 1 µL/min/mg in data set [2]; 3.1 µL/min/mg in data set [4] (dog, microsomes); 14 µL/min/mg in data set [5]; 9 µL/min/mg in data set [6]. The IC50 turned out to be 10.4 nM in the data set with leukemia cells MV-4-11 (setting [7]) and 2.8 nM on SHP2.
For the compound `N#Cc1ccc(OCC#Cc2cnc(N3CCC4(CC3)Cc3ccccc3[C@H]4N)c(CO)n2)cc1` [Compound A12, (S)-4-((3-(5-(1-amino-1,3-dihydrospiro[indene-2,4′-piperidin]-1′-yl)-6-(hydroxymethyl)pyrazin-2-yl)prop-2-yn-1-yl)oxy)benzonitrile], the microsomal CLint at 2 µM in data set [1] stood at 0.2 µL/min/mg; in data set [2], 7.3 µL/min/mg; in data set [4] (dog, microsomes), 6.2 µL/min/mg; in data set [5] it was 5.5 µL/min/mg; in data set [6], 8.3 µL/min/mg. Further, the IC50 in the data set with leukemia cells MV-4-11 (setting [7]) was found to be 3.8 nM; in data set [3] (setting [8]), 7.4 nM.
Regarding `NC(=O)c1ccc(OCC#Cc2cnc(N3CCC4(CC3)Cc3ccccc3[C@H]4N)cn2)cc1Cl` [Compound A62, (S)-4-((3-(5-(1-amino-1,3-dihydrospiro[inden-2,4′-piperidin]-1′-yl)pyrazin-2-yl)prop-2-yn-1-yl)oxy)-2-chlorobenzamide], the microsomal CLint at 2 µM was 2.6 µL/min/mg in data set [1]; 19.2 µL/min/mg in data set [2]; 2.9 µL/min/mg in data set [4] (dog, microsomes); 8.1 µL/min/mg in data set [5]; 9.7 µL/min/mg in data set [6]. Besides, the half-maximal inhibitory concentration (IC50) with leukemia cells MV-4-11 (setting [7]) is 14 nM; in data set [3] (setting [8]), 56 nM; on SHP2, 1.5 nM.
As for `CN(CC#Cc1cnc(N2CCC3(CC2)Cc2ccccc2[C@H]3N)c(CO)n1)c1ccc(C(N)=O)cc1` [Compound A55, (S)-4-((3-(5-(1-amino-1,3-dihydrospiro[indene-2,4′-piperidin]-1′-yl)-6-(hydroxymethyl)pyrazin-2-yl)prop-2-yn-1-yl)(methyl)amino)benzamide], the microsomal CLint at 2 µM in data set [1] was 14.7 µL/min/mg; in data set [2], 20 µL/min/mg; in data set [4] (dog, microsomes), 20.7 µL/min/mg; in data set [5] it was 24.7 µL/min/mg; in data set [6] it was 14.3 µL/min/mg. Further, the IC50 was determined as 9.6 nM with leukemia cells MV-4-11 (setting [7]), 26 nM in data set [3] (setting [8]) and 2.7 nM on SHP2.
For the compound `NC(=O)c1cccc(NCC#Cc2cnc(N3CCC4(CC3)Cc3ccccc3[C@H]4N)c(CO)n2)c1` [Compound A81, (S)-3-((3-(5-(1-amino-1,3-dihydrospiro[indene-2,4′-piperidin]-1′-yl)-6-(hydroxymethyl)pyrazin-2-yl)prop-2-yn-1-yl)amino)benzamide], the microsomal CLint at 2 µM in data set [1] was 14.2 µL/min/mg; in data set [2], 4 µL/min/mg; in data set [4] (dog, microsomes), 13.5 µL/min/mg; in data set [5] it was 18.4 µL/min/mg; in data set [6] it was 11.5 µL/min/mg. Further, the IC50 with leukemia cells MV-4-11 (setting [7]) is 1.8 nM; in data set [3] (setting [8]), 6.3 nM.
Consider `NC(=O)Cn1cc(OCC#Cc2cnc(N3CCC4(CC3)Cc3ccccc3[C@H]4N)c(CO)n2)cn1` [Compound A82, (S)-2-(4-((3-(5-(1-amino-1,3-dihydrospiro[indene-2,4′-piperidin]-1′-yl)-6-(hydroxymethyl)pyrazin-2-yl)prop-2-yn-1-yl)oxy)-1H-pyrazol-1-yl)acetamide], for which the microsomal CLint at 2 µM in data set [1] came out at 8.6 µL/min/mg; in data set [2] it was 4.5 µL/min/mg; in data set [4] (dog, microsomes), 3.9 µL/min/mg; in data set [5], 5.3 µL/min/mg; in data set [6], 10.5 µL/min/mg. The figures for the IC50 (in the data set with leukemia cells MV-4-11 (setting [7]); in data set [3] (setting [8])) were 9 nM and 40 nM, respectively.
Consider `N[C@@H]1c2ccccc2CC12CCN(c1ncc(C#CCOc3ccc4ccc(=O)[nH]c4c3)nc1CO)CC2` [Compound A24, (S)-7-((3-(5-(1-amino-1,3-dihydrospiro[indene-2,4′-piperidin]-1′-yl)-6-(hydroxymethyl)pyrazin-2-yl)prop-2-yn-1-yl)oxy)quinolin-2(1H)-one], for which the microsomal CLint at 2 µM in data set [1] was determined as 1.6 µL/min/mg; in data set [2] it was 9.9 µL/min/mg; in data set [4] (dog, microsomes) it was 8.8 µL/min/mg; in data set [5], 11 µL/min/mg; in data set [6], 8.3 µL/min/mg. The values for the IC50 (in the data set on leukemia cells MV-4-11 (setting [7]); in data set [3] (setting [8])) were 1.3 nM and 1.5 nM, respectively.
